Data: patent US20250268931A1, “TRANSCRIPTIONAL INHIBITOR FOR IMMUNE-RELATED GENE” (The University of Tokyo, priority 2022, published 2025)

System: IFN-β
Test: IFN-β concentration in culture supernatant of LPS-stimulated Raw264.7 cells (ELISA)
Format: cell-based
Conditions: PIPA 1, 3 or 10 μM 24 h, then LPS 20 ng/mL 16 h
Experimental: Raw264.7 cells, a macrophage cell line, were seeded on a 96-well plate at a cell density of 2×10^4 cells/well, and were then culture for 8 hours for adhesion. Thereafter, IRF-PIPA was added to the cultured cells to final concentrations of 1, 3, or 10 μM. After completion of the culture for 24 hours, LPS was added to the cultured cells to a final concentration of 20 ng/mL, and the obtained mixture was then cultured for 16 hours, followed by the recovery of the supernatant. The supernatant was 2-fold diluted with 1% BSA-PBS, and the IFN-β concentration was then measured by ELISA.
Raw264.7 cells, a cell line, were purchased from RIKEN Cell Bank, and were then cultured using D-MEM (Nacalai Tesque) containing 10% FBS (SIGMA-ALDRICH) and Penicillin-Streptomycin mixed solution (Nacalai Tesque).
2×10^4 Raw264.7 cells were seeded on a plate, and were then treated with IRF-PIPA 1, IRF-PIPA 2, IRF-PIPA 3 or IRF-PIPA 4 for 24 hours. Thereafter, the cells were stimulated with LPS (Lipopolysaccharide, SIGMA-ALDRICH) for 16 hours, and the culture supernatant was then recovered. The concentration of cytokine in the culture supernatant was measured using ELISA kit (R&D SYSTEMS) according to the standard protocols. The culture supernatant was diluted with 1% BSA-PBS, as necessary, and was then analyzed. 2.5×10^5 Mouse peritoneal macrophages were seeded on a plate, and were then treated with IRF-PIPA 3 for 16 or 24 hours. Thereafter, the cells were stimulated with Poly(I:C) (InvivoGen) for 16 hours or with mRNA vaccine (Moderna) for 20 to 24 hours, and the culture supernatant was then recovered. The concentration of cytokine in the culture supernatant was measured using ELISA kit (R&D SYSTEMS) according to the same standard protocols. On the other hand, the concentration of cytokine in mouse plasma was measured by administering 400 μg/mouse IRF-PIPA 3 into the abdominal cavity of wild-type mice, then administering 250 μg of Poly(I:C) into the same abdominal cavity 24 hours after the IRF-PIPA 3 administration, then collecting blood further 2 hours after the Poly(I:C) administration, and then measuring the cytokine concentration in the plasma using ELISA kit (R&D SYSTEMS) according to standard protocols.

SMILES	concentration dependence of suppression of IFN-β production
CC(=O)Nc1cn(C)c(C(=O)Nc2cc(C(=O)NCCC(=O)Nc3cc(C(=O)Nc4cn(C)c(C(=O)NCCCC(=O)Nc5cc(C(=O)Nc6cc(C(=O)NCCC(=O)Nc7cc(C(=O)Nc8cc(C(=O)NCCCN(C)C)n(C)c8)n(C)c7)n(C)c6)n(C)c5)n4)n(C)c3)n(C)c2)n1 [IRF-PIPA 1]	concentration dependence was not observed
CC(=O)Nc1cn(C)c(C(=O)Nc2cc(C(=O)NCCC(=O)Nc3cc(C(=O)Nc4cc(C(=O)NCCCC(=O)Nc5cn(C)c(C(=O)Nc6cc(C(=O)NCCC(=O)Nc7cc(C(=O)Nc8cc(C(=O)NCCCN(C)C)n(C)c8)n(C)c7)n(C)c6)n5)n(C)c4)n(C)c3)n(C)c2)n1 [IRF-PIPA 2]	concentration dependence was not observed
